The assay has as its system hyaluronidase. In words: Examination for inhibiting hyaluronic acid degradation (hyaluronidase inhibition, p-DMAB colour reaction, OD 585 nm). The format is biochemical. The conditions noted are these: final concentration: rosemary extract BG 0.000165 w/w % at dry weight, retinol acetate 0.0000516 w/w %; substrate sodium hyaluronate; absorbance OD 585 nm with control (water) adjusted to 100; FIG. 1. The procedure:
50 μl hyaluronidase solution (1 mg/ml) (Sigma Aldrich Japan K.K.) was placed into a microtube, and 50 μl of an evaluation drug was added, and then the mixture was incubated for 10 min at 37° C. Rosemary extract BG (Maruzen Pharmaceuticals, Co., Ltd.), retinol acetate (BASF Japan Ltd.), and rosemary extract and retinol acetate were used as the evaluation drug, and water was used as a control instead of the evaluation agent. Rosemary extract BG was added so that the final concentration thereof after addition of hyaluronic acid sodium aqueous solution was 0.000165 w/w % at dry weight. Retinol acetate was added so that the final concentration thereof after addition of hyaluronic acid sodium aqueous solution was 0.0000516 w/w %. After incubation, 400 μl of 1 mg/ml sodium hyaluronate (Shiseido Co., Ltd., MW 1,100,000-1,600,000) was added to the solution, and then incubated at 37° C., for 10 min, and then 50 μl of sodium hydroxide (0.2 M) was added to stop the reaction. This solution was boiled for 3 min, then cooled with flowing water. 300 μl of 10% p-DMAB (dimethylaminobenzaldehyde) solution (NACALAI TESQUE, Inc.) was added to the solution, and then incubated for 37° C. for 20 min. After bringing it back to room temperature, 100 μl of each solution was poured into each well of 96 well-plate, and OD 585 nm was determined by using […] Pharma Biomedical Co., Ltd.).

Entries after “also recorded” stand apart in the source; their conditions may differ.

In the case of retinol acetate, the hyaluronidase inhibitory activity result is reported as “does not have a hyaluronidase activity; also recorded: did not have a hyaluronidase inhibitory activity”.

Values taken from patent US20200000704A1, “DEGRADATION INHIBITOR OF HYALURONIC ACID, COMPRISING ROSEMARY EXTRACT AND RETINOL ACETATE” (Shiseido Company, Ltd., priority 2012, published 2020).
